Measurements taken from ChEMBL document CHEMBL4219129, “Design, synthesis and biological evaluation of spiropyrimidinetriones oxazolidinone derivatives as antibacterial agents” (2018).
≈ marks a conversion by molar mass, not a printed value.

How the values were obtained:
Assay type in all cases: functional
Staphylococcus aureus [1] = experiment: Antibacterial activity against Staphylococcus aureus Mu50 ATCC 700699
Staphylococcus aureus [2] = experiment: Antibacterial activity against […] Staphylococcus aureus ATCC 13709 SMITH
Staphylococcus aureus [3] = experiment: Antibacterial activity against methicillin-resistant Staphylococcus aureus DB-00026
[4] = tested on: Staphylococcus epidermidis; experiment: Antibacterial activity against methicillin-resistant Staphylococcus epidermidis ATCC 35984
Staphylococcus aureus [5] = experiment: Antibacterial activity against methicillin-resistant Staphylococcus aureus 562
[6] = tested on: Staphylococcus epidermidis; experiment: Antibacterial activity against Staphylococcus epidermidis ATCC 12228
Escherichia coli [7] = experiment: Antibacterial activity against Escherichia coli MG1655; conditions: K-12 substr. MG1655
Escherichia coli [8] = experiment: Antibacterial activity against TolC-deficient Escherichia coli
Staphylococcus aureus [9] = experiment: Antibacterial activity against methicillin-resistant Staphylococcus aureus 1201984
Staphylococcus aureus [10] = experiment: Antibacterial activity against linezolid-resistant Staphylococcus aureus O-128
[11] = tested on: Staphylococcus epidermidis; experiment: Antibacterial activity against linezolid-resistant Staphylococcus epidermidis 1117174
Staphylococcus aureus [12] = experiment: Antibacterial activity against PVL positive Staphylococcus aureus
Staphylococcus aureus [13] = experiment: Antibacterial activity against Staphylococcus aureus FDA 209P
[14] = tested on: Staphylococcus epidermidis; experiment: Antibacterial activity against linezolid-resistant Staphylococcus epidermidis 1089191
Staphylococcus aureus [15] = experiment: Antibacterial activity against Staphylococcus aureus ATCC 29213
Staphylococcus aureus [16] = experiment: Antibacterial activity against methicillin-resistant Staphylococcus aureus USA300 BAA-1556
Enterococcus faecalis [17] = experiment: Antibacterial activity against Enterococcus faecalis ATCC 51299
Enterococcus faecalis [18] = experiment: Antibacterial activity against Enterococcus faecalis ATCC 19434
Enterococcus faecium [19] = experiment: Antibacterial activity against vancomycin-resistant Enterococcus faecium 32/133
Enterococcus faecium [20] = experiment: Antibacterial activity against vancomycin-resistant Enterococcus faecium 6A
Enterococcus faecium [21] = experiment: Antibacterial activity against vancomycin-resistant Enterococcus faecium 134
Enterococcus faecium [22] = experiment: Antibacterial activity against Enterococcus faecium ATCC 35667
Enterococcus faecium [23] = experiment: Antibacterial activity against vancomycin-resistant Enterococcus faecium 31/132
Enterococcus faecium [24] = experiment: Antibacterial activity against vancomycin-resistant Enterococcus faecium R1
Enterococcus faecalis [25] = experiment: Antibacterial activity against Enterococcus faecalis ATCC 29212
Enterococcus faecium [26] = experiment: Antibacterial activity against Enterococcus faecium 575
Enterococcus faecium [27] = experiment: Antibacterial activity against Enterococcus faecium ATCC 19434
Enterococcus faecium [28] = experiment: Antibacterial activity against linezolid-resistant Enterococcus faecium 303
Enterococcus faecium [29] = experiment: Antibacterial activity against Enterococcus faecium NLNZ 572
Enterococcus faecium [30] = experiment: Antibacterial activity against vancomycin-resistant Enterococcus faecium 03080 DS
Enterococcus faecalis [31] = experiment: Antibacterial activity against linezolid-resistant Enterococcus faecalis ATCC 29212
Enterococcus faecium [32] = experiment: Antibacterial activity against Enterococcus faecium 45/146

Structure (SMILES)	MIC (Staphylococcus aureus [1])	MIC (Staphylococcus aureus [2])	MIC (Staphylococcus aureus [3])	MIC [4]	MIC (Staphylococcus aureus [5])	MIC [6]	MIC (Escherichia coli [7])	MIC (Escherichia coli [8])	MIC (Staphylococcus aureus [9])	MIC (Staphylococcus aureus [10])	MIC [11]	MIC (Staphylococcus aureus [12])	MIC (Staphylococcus aureus [13])	MIC [14]	MIC (Staphylococcus aureus [15])	MIC (Staphylococcus aureus [16])	MIC (Enterococcus faecalis [17])	MIC (Enterococcus faecalis [18])	MIC (Enterococcus faecium [19])	MIC (Enterococcus faecium [20])	also measured
COC(=O)C1(C(=O)OC)Cc2cc(-c3ccc(N4C[C@H](CO)OC4=O)cc3F)ccc2N2CCOCC21 (some centres not stated)	16 µg/mL (≈ 31.1 µM)	> 32 µg/mL	16 µg/mL (≈ 31.1 µM)	8 µg/mL (≈ 15.5 µM)	8 µg/mL (≈ 15.5 µM)	8 µg/mL (≈ 15.5 µM)	> 32 µg/mL	16 µg/mL (≈ 31.1 µM)	8 µg/mL (≈ 15.5 µM)	> 32 µg/mL	> 32 µg/mL	8 µg/mL (≈ 15.5 µM)	16 µg/mL (≈ 31.1 µM)	> 32 µg/mL	16 µg/mL (≈ 31.1 µM)	16 µg/mL (≈ 31.1 µM)	–	–	–	–	–
CC(=O)NC[C@H]1CN(c2ccc(-c3ccc4c(c3)CC3(C(=O)NC(=O)NC3=O)C3CCCCN43)c(F)c2)C(=O)O1 (some centres not stated)	≤ 1 µg/mL	16 µg/mL (≈ 29.1 µM)	2 µg/mL (≈ 3.64 µM)	≤ 1 µg/mL	≤ 1 µg/mL	2 µg/mL (≈ 3.64 µM)	> 32 µg/mL	4 µg/mL (≈ 7.28 µM)	2 µg/mL (≈ 3.64 µM)	8 µg/mL (≈ 14.6 µM)	> 32 µg/mL	4 µg/mL (≈ 7.28 µM)	2 µg/mL (≈ 3.64 µM)	> 32 µg/mL	2 µg/mL (≈ 3.64 µM)	2 µg/mL (≈ 3.64 µM)	1 µg/mL (≈ 1.82 µM)	2 µg/mL (≈ 3.64 µM)	4 µg/mL (≈ 7.28 µM)	1 µg/mL (≈ 1.82 µM)	MIC (Enterococcus faecium [21]): 4 µg/mL (≈ 7.28 µM); MIC (Enterococcus faecium [22]): 1 µg/mL (≈ 1.82 µM); MIC (Enterococcus faecium [23]): 2 µg/mL (≈ 3.64 µM); MIC (Enterococcus faecium [24]): 1 µg/mL (≈ 1.82 µM); MIC (Enterococcus faecalis [25]): 2 µg/mL (≈ 3.64 µM); MIC (Enterococcus faecium [26]): 2 µg/mL (≈ 3.64 µM); MIC (Enterococcus faecium [27]): 2 µg/mL (≈ 3.64 µM); MIC (Enterococcus faecium [28]): 16 µg/mL (≈ 29.1 µM); MIC (Enterococcus faecium [29]): 4 µg/mL (≈ 7.28 µM); MIC (Enterococcus faecium [30]): 1 µg/mL (≈ 1.82 µM); MIC (Enterococcus faecalis [31]): 4 µg/mL (≈ 7.28 µM); MIC (Enterococcus faecium [32]): 2 µg/mL (≈ 3.64 µM)
COC(=O)NC[C@H]1CN(c2ccc(-c3ccc4c(c3)CC3(C(=O)NC(=O)NC3=O)C3CCCN43)c(F)c2)C(=O)O1 (some centres not stated)	2 µg/mL (≈ 3.63 µM)	> 32 µg/mL	4 µg/mL (≈ 7.25 µM)	2 µg/mL (≈ 3.63 µM)	2 µg/mL (≈ 3.63 µM)	2 µg/mL (≈ 3.63 µM)	> 32 µg/mL	4 µg/mL (≈ 7.25 µM)	2 µg/mL (≈ 3.63 µM)	16 µg/mL (≈ 29 µM)	32 µg/mL (≈ 58 µM)	2 µg/mL (≈ 3.63 µM)	4 µg/mL (≈ 7.25 µM)	32 µg/mL (≈ 58 µM)	2 µg/mL (≈ 3.63 µM)	4 µg/mL (≈ 7.25 µM)	8 µg/mL (≈ 14.5 µM)	16 µg/mL (≈ 29 µM)	16 µg/mL (≈ 29 µM)	8 µg/mL (≈ 14.5 µM)	MIC (Enterococcus faecium [21]): 16 µg/mL (≈ 29 µM); MIC (Enterococcus faecium [22]): 8 µg/mL (≈ 14.5 µM); MIC (Enterococcus faecium [23]): 16 µg/mL (≈ 29 µM); MIC (Enterococcus faecium [24]): 8 µg/mL (≈ 14.5 µM); MIC (Enterococcus faecalis [25]): 8 µg/mL (≈ 14.5 µM); MIC (Enterococcus faecium [26]): 16 µg/mL (≈ 29 µM); MIC (Enterococcus faecium [27]): 16 µg/mL (≈ 29 µM); MIC (Enterococcus faecium [28]): > 32 µg/mL; MIC (Enterococcus faecium [29]): 32 µg/mL (≈ 58 µM); MIC (Enterococcus faecium [30]): 8 µg/mL (≈ 14.5 µM); MIC (Enterococcus faecalis [31]): 16 µg/mL (≈ 29 µM); MIC (Enterococcus faecium [32]): 8 µg/mL (≈ 14.5 µM)
O=C1NC(=O)C2(Cc3cc(-c4ccc(N5C[C@H](CO)OC5=O)cc4F)ccc3N3CCOCC32)C(=O)N1 (some centres not stated)	4 µg/mL (≈ 7.84 µM)	32 µg/mL (≈ 62.7 µM)	8 µg/mL (≈ 15.7 µM)	2 µg/mL (≈ 3.92 µM)	4 µg/mL (≈ 7.84 µM)	4 µg/mL (≈ 7.84 µM)	> 32 µg/mL	4 µg/mL (≈ 7.84 µM)	16 µg/mL (≈ 31.3 µM)	32 µg/mL (≈ 62.7 µM)	32 µg/mL (≈ 62.7 µM)	8 µg/mL (≈ 15.7 µM)	8 µg/mL (≈ 15.7 µM)	> 32 µg/mL	8 µg/mL (≈ 15.7 µM)	8 µg/mL (≈ 15.7 µM)	–	–	–	–	–
O=C1NC(=O)C2(Cc3cc(-c4ccc(N5C[C@H](CO)OC5=O)cc4F)ccc3N3CCCC32)C(=O)N1 (some centres not stated)	2 µg/mL (≈ 4.04 µM)	32 µg/mL (≈ 64.7 µM)	8 µg/mL (≈ 16.2 µM)	≤ 1 µg/mL	2 µg/mL (≈ 4.04 µM)	2 µg/mL (≈ 4.04 µM)	> 32 µg/mL	4 µg/mL (≈ 8.09 µM)	4 µg/mL (≈ 8.09 µM)	32 µg/mL (≈ 64.7 µM)	32 µg/mL (≈ 64.7 µM)	4 µg/mL (≈ 8.09 µM)	4 µg/mL (≈ 8.09 µM)	> 32 µg/mL	4 µg/mL (≈ 8.09 µM)	8 µg/mL (≈ 16.2 µM)	–	–	–	–	–
